From US20120053115A1, “Lantibiotic Carboxyamide Derivatives With Enhanced Antibacterial Activity” (Sentinella Pharmaceuticals, Inc., priority 2008, published 2012)

Assays:
[1] = system: C. albicans ATCC 90028 (code 145); conditions: 0.02% albumine bovine serum, read after 24 h
Description: (§1) MICs were performed using the broth microdilution methodology following the NCCLS procedure (NCCLS Document M7-A4 Vol. 17 No. 2 January 1997) in presence of 0.02% albumine bovine serum with inocula of approximately 5×10^5 cfu/mL. The media employed included cation-adjusted Mueller-Hinton (MH) broth (Difco Laboratories, Detroit, Mich., USA) supplemented or not with 30% (v/v) bovine serum. Tests were read after 24 h incubation at 25-37° C.

[2] = system: E. faecalisVanA (code 560); conditions: E. faecalis VanA code 560; 0.02% albumine bovine serum; read after 24 h
Description: as §1

[3] = system: E. faecalisVanS (code 559); conditions: E. faecalis VanS code 559; 0.02% albumine bovine serum; read after 24 h
Description: as §1

[4] = system: E. faecium VanA (code 569); conditions: 0.02% albumine bovine serum, read after 24 h
Description: as §1

[5] = system: Enterococcus faecium VanS (code 568); conditions: E. faecium VanS code 568; 0.02% albumine bovine serum; read after 24 h
Description: as §1

[6] = system: Escherichia coli (code 47); conditions: 0.02% albumine bovine serum, read after 24 h
Description: as §1

[7] = system: S. epidermidis ATCC12228 (code 147); conditions: 0.02% albumine bovine serum, read after 24 h
Description: as §1

[8] = system: S. haemolyticus Met-R (code 1729); conditions: 0.02% albumine bovine serum, read after 24 h
Description: as §1

[9] = system: S. haemolyticus Met-S (code 1730); conditions: 0.02% albumine bovine serum, read after 24 h
Description: as §1

[10] = system: Staphylococcus aureus VISA (code 3798); conditions: S. aureus VISA code 3798; 0.02% albumine bovine serum; read after 24 h
Description: as §1

[11] = system: Staphylococcus aureus VISA Met-R (code 3797); conditions: S. aureus VISA Met-R code 3797; 0.02% albumine bovine serum; read after 24 h
Description: as §1

Row | SMILES | Minimal Inhibitory Concentrations [1] | Minimal Inhibitory Concentrations [2] | Minimal Inhibitory Concentrations [3] | Minimal Inhibitory Concentrations [4] | Minimal Inhibitory Concentrations [5] | Minimal Inhibitory Concentrations [6] | Minimal Inhibitory Concentrations [7] | Minimal Inhibitory Concentrations [8] | Minimal Inhibitory Concentrations [9] | Minimal Inhibitory Concentrations [10] | Minimal Inhibitory Concentrations [11]
1 | C=C1NC(=O)[C@H](C(C)C)NC(=O)[C@H](NC(=O)/C(=C/C)NC(=O)[C@@H](N)[C@@H](C)CC)CSC[C@@H](C(=O)N[C@H]2C(=O)N3CCC[C@H]3C(=O)NCC(=O)N[C@H](C(=O)N[C@H](C(=O)N[C@@H]3CSC[C@@H]4NC(=O)CNC(=O)[C@@H](CSC[C@@H]5NC(=O)[C@H](Cc6c[nH]cn6)NC(=O)[C@@H](CSC[C@@H](C(=O)NC6CCCCC6)NC5=O)NC4=O)NC(=O)CNC(=O)CNC(=O)CNC(=O)[C@H](CCC(=O)NC4CCCCC4)NC3=O)[C@@H](C)O)CS[C@H]2C)NC(=O)[C@H](Cc2c[nH]c3ccccc23)NC1=O [Compound 1] | 64 µg/mL | 1 µg/mL | 1 µg/mL | 2 µg/mL | 2 µg/mL | >128 µg/mL | 2 µg/mL | 32 µg/mL | 4 µg/mL | 2 µg/mL | 4 µg/mL
2 | C=C1NC(=O)[C@H](C(C)C)NC(=O)[C@H](NC(=O)/C(=C/C)NC(=O)[C@@H](N)[C@@H](C)CC)CSC[C@@H](C(=O)N[C@H]2C(=O)N3CCC[C@H]3C(=O)NCC(=O)N[C@H](C(=O)N[C@H](C(=O)N[C@@H]3CSC[C@@H]4NC(=O)CNC(=O)[C@@H](CSC[C@@H]5NC(=O)[C@H](Cc6c[nH]cn6)NC(=O)[C@@H](CSC[C@@H](C(=O)N(C)C)NC5=O)NC4=O)NC(=O)CNC(=O)CNC(=O)CNC(=O)[C@H](CCC(=O)N(C)C)NC3=O)[C@@H](C)O)CS[C@H]2C)NC(=O)[C@H](Cc2c[nH]c3ccccc23)NC1=O [Compound 2] | 64 µg/mL | 16 µg/mL | 16 µg/mL | 16 µg/mL | 16 µg/mL | >128 µg/mL | 8 µg/mL | 32 µg/mL | 8 µg/mL | 4 µg/mL | 16 µg/mL
3 | C=CCNC(=O)CC[C@@H]1NC(=O)[C@H](NC(=O)[C@@H](NC(=O)[C@@H]2CS[C@@H](C)[C@@H](NC(=O)[C@@H]3CSC[C@@H](NC(=O)/C(=C/C)NC(=O)[C@@H](N)[C@@H](C)CC)C(=O)N[C@@H](C(C)C)C(=O)NC(=C)C(=O)N[C@@H](Cc4c[nH]c5ccccc45)C(=O)N3)C(=O)N3CCC[C@H]3C(=O)NCC(=O)N2)[C@@H](C)O)CSC[C@@H]2NC(=O)CNC(=O)[C@@H](CSC[C@@H]3NC(=O)[C@H](Cc4c[nH]cn4)NC(=O)[C@@H](CSC[C@@H](C(=O)NCC=C)NC3=O)NC2=O)NC(=O)CNC(=O)CNC(=O)CNC1=O [Compound 5] | 32 µg/mL | 8 µg/mL | 8 µg/mL | 8 µg/mL | 8 µg/mL | >128 µg/mL | 4 µg/mL | 32 µg/mL | 4 µg/mL | 2 µg/mL | 8 µg/mL
4 | C=C1NC(=O)[C@H](C(C)C)NC(=O)[C@H](NC(=O)/C(=C/C)NC(=O)[C@@H](N)[C@@H](C)CC)CSC[C@@H](C(=O)N[C@H]2C(=O)N3CCC[C@H]3C(=O)NCC(=O)N[C@H](C(=O)N[C@H](C(=O)N[C@@H]3CSC[C@@H]4NC(=O)CNC(=O)[C@@H](CSC[C@@H]5NC(=O)[C@H](Cc6c[nH]cn6)NC(=O)[C@@H](CSC[C@@H](C(=O)NCc6cccc(OC)c6)NC5=O)NC4=O)NC(=O)CNC(=O)CNC(=O)CNC(=O)[C@H](CCC(=O)NCc4cccc(OC)c4)NC3=O)[C@@H](C)O)CS[C@H]2C)NC(=O)[C@H](Cc2c[nH]c3ccccc23)NC1=O [Compound 6] | 32 µg/mL | 2 µg/mL | 2 µg/mL | 1 µg/mL | 2 µg/mL | >128 µg/mL | 2 µg/mL | >128 µg/mL | 2 µg/mL | 1 µg/mL | 2 µg/mL
5 | C=C1NC(=O)[C@H](C(C)C)NC(=O)[C@H](NC(=O)/C(=C/C)NC(=O)[C@@H](N)[C@@H](C)CC)CSC[C@@H](C(=O)N[C@H]2C(=O)N3CCC[C@H]3C(=O)NCC(=O)N[C@H](C(=O)N[C@H](C(=O)N[C@@H]3CSC[C@@H]4NC(=O)CNC(=O)[C@@H](CSC[C@@H]5NC(=O)[C@H](Cc6c[nH]cn6)NC(=O)[C@@H](CSC[C@@H](C(=O)NCCN)NC5=O)NC4=O)NC(=O)CNC(=O)CNC(=O)CNC(=O)[C@H](CCC(=O)NCCN)NC3=O)[C@@H](C)O)CS[C@H]2C)NC(=O)[C@H](Cc2c[nH]c3ccccc23)NC1=O [Compound 7] | 64 µg/mL | 2 µg/mL | 4 µg/mL | 1 µg/mL | 1 µg/mL | >128 µg/mL | 1 µg/mL | 0.25 µg/mL | <0.125 µg/mL | 0.50 µg/mL | 1 µg/mL
6 | C=C1NC(=O)[C@H](C(C)C)NC(=O)[C@H](NC(=O)/C(=C/C)NC(=O)[C@@H](N)[C@@H](C)CC)CSC[C@@H](C(=O)N[C@H]2C(=O)N3CCC[C@H]3C(=O)NCC(=O)N[C@H](C(=O)N[C@H](C(=O)N[C@@H]3CSC[C@@H]4NC(=O)CNC(=O)[C@@H](CSC[C@@H]5NC(=O)[C@H](Cc6c[nH]cn6)NC(=O)[C@@H](CSC[C@@H](C(=O)NCCCCCCCCCCCC)NC5=O)NC4=O)NC(=O)CNC(=O)CNC(=O)CNC(=O)[C@H](CCC(=O)NCCCCCCCCCCCC)NC3=O)[C@@H](C)O)CS[C@H]2C)NC(=O)[C@H](Cc2c[nH]c3ccccc23)NC1=O [Compound 8] | 0.25 µg/mL | 1 µg/mL | 1 µg/mL | 2 µg/mL | 2 µg/mL | 2 µg/mL | 1 µg/mL | 1 µg/mL | 1 µg/mL | 1 µg/mL | 2 µg/mL
7 | C=C1NC(=O)[C@H](C(C)C)NC(=O)[C@H](NC(=O)/C(=C/C)NC(=O)[C@@H](N)[C@@H](C)CC)CSC[C@@H](C(=O)N[C@H]2C(=O)N3CCC[C@H]3C(=O)NCC(=O)N[C@H](C(=O)N[C@H](C(=O)N[C@@H]3CSC[C@@H]4NC(=O)CNC(=O)[C@@H](CSC[C@@H]5NC(=O)[C@H](Cc6c[nH]cn6)NC(=O)[C@@H](CSC[C@@H](C(=O)Nc6cccc7ccccc67)NC5=O)NC4=O)NC(=O)CNC(=O)CNC(=O)CNC(=O)[C@H](CCC(=O)Nc4cccc5ccccc45)NC3=O)[C@@H](C)O)CS[C@H]2C)NC(=O)[C@H](Cc2c[nH]c3ccccc23)NC1=O [Compound 9] | 32 µg/mL | 16 µg/mL | 16 µg/mL | 16 µg/mL | 8 µg/mL | >128 µg/mL | 16 µg/mL | 16 µg/mL | 16 µg/mL | 32 µg/mL | 32 µg/mL
8 | C=C1NC(=O)[C@H](C(C)C)NC(=O)[C@H](NC(=O)/C(=C/C)NC(=O)[C@@H](N)[C@@H](C)CC)CSC[C@@H](C(=O)N[C@H]2C(=O)N3CCC[C@H]3C(=O)NCC(=O)N[C@H](C(=O)N[C@H](C(=O)N[C@@H]3CSC[C@@H]4NC(=O)CNC(=O)[C@@H](CSC[C@@H]5NC(=O)[C@H](Cc6c[nH]cn6)NC(=O)[C@@H](CSC[C@@H](C(=O)NCCOC)NC5=O)NC4=O)NC(=O)CNC(=O)CNC(=O)CNC(=O)[C@H](CCC(=O)NCCOC)NC3=O)[C@@H](C)O)CS[C@H]2C)NC(=O)[C@H](Cc2c[nH]c3ccccc23)NC1=O [Compound 11] | 64 µg/mL | 16 µg/mL | 16 µg/mL | 8 µg/mL | 16 µg/mL | >128 µg/mL | 8 µg/mL | 32 µg/mL | 4 µg/mL | 4 µg/mL | 8 µg/mL
